# Measurements taken from patent US6461997B1, “Triazole sulfones having herbicidal activity” (Monsanto Technology LLC, priority 1999, dated 2002).
# Key:
# [1] = system: VERPE (creeping speedwell); experiment: Pre-emergence herbicidal activity, cool season; assay type: in vivo, Veronica persicaria; details: lowest tested rate with 80% or greater inhibition; rates 300, 100, 30, 10 g/ha; about 14 days
# Procedure, shortened: (§1)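 GR80 values derive from percent inhibition relative to untreated plants, read roughly 14 days after sowing and pre-emergence soil-surface treatment (compound in 50:50 acetone/water; rates typically 10, 30, 100, 300 g/ha). Warm-season weeds grew at 30/21° C day/night, cool-season ones at 18/13° C; an asterisk marks activity without reaching 80% at the highest rate.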
# [2] = system: PANMI (wild proso millet); experiment: Pre-emergence herbicidal activity, warm season; assay type: in vivo, Panicum miliaceum; details: GR80 = lowest tested rate (300, 100, 30, 10 g/ha) with 80% or greater inhibition; approx. 14 days after treating; 30/21° C.
# Procedure, shortened: (§2)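 Activity is expressed as the rate giving 80% inhibition, with 300, 100, 30 and 10 g/ha typically tested. An asterisk marks activity short of 80% at the top rate. Warm-season grasses were held at 30/21 °C; cool-season blackgrass and wild buckwheat at 18/13 °C; scoring at about 14 days.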
# SINAR (wild mustard) = experiment: Pre-emergence herbicidal activity, cool season; assay type: in vivo, Sinapis arvensis; details: lowest tested rate with 80% or greater inhibition; rates 300, 100, 30, 10 g/ha; about 14 days
# Procedure, shortened: as §1
# SORVU (shattercane) = experiment: Pre-emergence herbicidal activity, warm season; assay type: in vivo, Sorghum vulgare; details: GR80 = lowest tested rate (300, 100, 30, 10 g/ha) with 80% or greater inhibition; approx. 14 days after treating; 30/21° C.
# Procedure, shortened: as §1
# [3] = system: GALAP (catchweed bedstraw); experiment: Pre-emergence herbicidal activity, cool season; assay type: in vivo, Galium aparine; details: lowest tested rate with 80% or greater inhibition; rates 300, 100, 30, 10 g/ha; about 14 days
# Procedure, shortened: as §1
# AVEFA (wild oat) = experiment: Post-emergence herbicidal activity, cool season; assay type: in vivo, Avena fatua; details: abraded plants sprayed at 300, 100, 30 and 10 g/ha; about 14 days after treatment
# Protocol: (§3) In another set of tests, the post-emergence activity of compounds of this invention was evaluated on the cool season species listed above. The following procedure was used.
# (§4) A pre-prepared topsoil mixture (described above) was placed in a pot and compacted to a depth of 1.0 to 1.25 cm from the top of the pot. Seeds of each of several monocotyledonous and dicotyledonous annual plant species were placed on top of the soil. The seeds were covered with a mixture of 50% topsoil and 50% Rediearth™ in sufficient quantity to level-fill the pots. The pots were then placed on a greenhouse bench and subirrigated as needed.
# (§5) When plants growing from the seeds had emerged and reached a suitable growth stage for post-emergence treatment, typically 9 to 14 days after planting, above-ground parts of the plants were subjected to a pre-treatment involving abrasion to create greater opportunity for foliar uptake of subsequently applied compounds. Abrasion was performed using garnet 200w particles applied with a Sears Craftsman hand-held sandblaster operated at approximately 850 kPa (50 psig) pressure.
# (§6) A known amount of each test compound dissolved or suspended in an appropriate organic solvent was diluted with a 50:50 mix of acetone and water and applied to the plants by spraying with a standard spray nozzle in a spray volume of […] at a spray pressure of 511 kPa (30 psig). Only the compounds of Examples 1, 8-15 and 17-22 were included in post-emergence tests. Application rates for these compounds were 300, 100, 30 and 10 g/ha. Control plants were abraded but not sprayed.
# (§7) After treatment the plants were placed in a greenhouse with an 18/13° C. day/night temperature regime and were subsequently watered as needed for growth. Approximately 14 days after treatment, the plants were observed and herbicidal efficacy recorded as percent inhibition by comparison with control plants. GR80 values were assigned for each compound as described above for the pre-emergence tests.
# BROTE (downy brome) = experiment: Post-emergence herbicidal activity, cool season; assay type: in vivo, Bromus tectorum; details: abraded plants sprayed at 300, 100, 30 and 10 g/ha; about 14 days after treatment
# Protocol: as §3, §4, §5, §6, §7
# [4] = system: LAMPU (purple deadnettle); experiment: Pre-emergence herbicidal activity, cool season; assay type: in vivo, Lamium purpureum; details: lowest tested rate with 80% or greater inhibition; rates 300, 100, 30, 10 g/ha; about 14 days
# Procedure, shortened: as §1
# STEME (common chickweed) = experiment: Pre-emergence herbicidal activity, cool season; assay type: in vivo, Stellaria media; details: lowest tested rate with 80% or greater inhibition; rates 300, 100, 30, 10 g/ha; about 14 days
# Procedure, shortened: as §1
# POLCO (wild buckwheat) = experiment: Pre-emergence herbicidal activity, cool season; assay type: in vivo, Polygonum convolvulus; details: lowest tested rate with 80% or greater inhibition; rates 300, 100, 30, 10 g/ha; about 14 days
# Procedure, shortened: as §2
# SASKR (russian thistle) = experiment: Pre-emergence herbicidal activity, cool season; assay type: in vivo, Salsola kali; details: lowest tested rate with 80% or greater inhibition; rates 300, 100, 30, 10 g/ha; about 14 days
# Procedure, shortened: as §1
# SETVI (green foxtail) = experiment: Post-emergence herbicidal activity, cool season; assay type: in vivo, Setaria viridis; details: abraded plants sprayed at 300, 100, 30 and 10 g/ha; about 14 days after treatment
# Protocol: as §3, §4, §5, §6, §7
# [5] = system: AGSST (creeping bentgrass); experiment: Post-emergence herbicidal activity, cool season; assay type: in vivo, Agrostis stolonifera; details: abraded plants sprayed at 300, 100, 30 and 10 g/ha; about 14 days after treatment
# Protocol: as §3, §4, §5, §6, §7
# ALOMY (blackgrass) = experiment: Post-emergence herbicidal activity, cool season; assay type: in vivo, Alopecurus myosuroides; details: abraded plants sprayed at 300, 100, 30 and 10 g/ha; about 14 days after treatment
# Protocol: as §3, §4, §5, §6, §7
# [6] = system: AEGCY (jointed goatgrass); experiment: Post-emergence herbicidal activity, cool season; assay type: in vivo, Aegilops cylindrica; details: abraded plants sprayed at 300, 100, 30 and 10 g/ha; about 14 days after treatment
# Protocol: as §3, §4, §5, §6, §7
# [7] = system: AGRRE (quackgrass (seedling)); experiment: Post-emergence herbicidal activity, cool season; assay type: in vivo, Elymus repens; details: abraded plants sprayed at 300, 100, 30 and 10 g/ha; about 14 days after treatment
# Protocol: as §3, §4, §5, §6, §7
# LOLMG (annual ryegrass) = experiment: Post-emergence herbicidal activity, cool season; assay type: in vivo, Lolium multiflorum; details: abraded plants sprayed at 300, 100, 30 and 10 g/ha; about 14 days after treatment
# Protocol: as §3, §4, §5, §6, §7
# PANDI (fall panicum) = experiment: Pre-emergence herbicidal activity, warm season; assay type: in vivo, Panicum dichotomiflorum; details: GR80 = lowest tested rate (300, 100, 30, 10 g/ha) with 80% or greater inhibition; approx. 14 days after treating; 30/21° C.
# Procedure, shortened: as §1
# [8] = system: AGSST (creeping bentgrass); experiment: Pre-emergence herbicidal activity, cool season; assay type: in vivo, Agrostis stolonifera; details: GR80 = lowest tested rate (300, 100, 30, 10 g/ha) with 80% or greater inhibition; approx. 14 days after treating; 18/13° C.
# Procedure, shortened: as §1
# [9] = system: CHEAL (common lambsquarters); experiment: Pre-emergence herbicidal activity, warm season; assay type: in vivo, Chenopodium album; details: GR80 = lowest tested rate (300, 100, 30, 10 g/ha) with 80% or greater inhibition; approx. 14 days after treating; 30/21° C.
# Procedure, shortened: as §1
SMILES,"Pre-emergence activity GR80, VERPE [1] [g/ha]",Pre-emergence activity (GR80) PANMI [2],"Pre-emergence activity GR80, SINAR (SINAR (wild mustard))",Pre-emergence activity (GR80) SORVU (SORVU (shattercane)),"Pre-emergence activity GR80, GALAP [3]","Post-emergence activity GR80, AVEFA (AVEFA (wild oat))","Post-emergence activity GR80, BROTE (BROTE (downy brome))","Pre-emergence activity GR80, LAMPU [4]","Pre-emergence activity GR80, STEME (STEME (common chickweed))","Pre-emergence activity GR80, POLCO (POLCO (wild buckwheat))","Pre-emergence activity GR80, SASKR (SASKR (russian thistle))","Post-emergence activity GR80, SETVI (SETVI (green foxtail))","Post-emergence activity GR80, AGSST [5]","Post-emergence activity GR80, ALOMY (ALOMY (blackgrass))","Post-emergence activity GR80, AEGCY [6]","Post-emergence activity GR80, AGRRE [7]","Post-emergence activity GR80, LOLMG (LOLMG (annual ryegrass))",Pre-emergence activity (GR80) PANDI (PANDI (fall panicum)) [g/ha],Pre-emergence activity (GR80) AGSST [8] [g/ha],Pre-emergence activity (GR80) CHEAL [9] [g/ha]
CCN(CC)C(=O)n1cnc(S(=O)(=O)C(F)(F)SCCOC(C)=O)n1 [Example 21],300,"* (activity observed, at least at highest rate, but <80% inhibition)",[empty],"* (activity observed, at least at highest rate, but <80% inhibition)",300 g/ha,[empty],[empty],300 g/ha,[empty],[empty],[empty],[empty],[empty],[empty],[empty],[empty],[empty],,,
CCN(CC)C(=O)n1cnc(S(=O)(=O)C(F)(F)SCCOC(=O)c2ccccc2)n1 [Example 22],300,,[empty],"* (activity observed, at least at highest rate, but <80% inhibition)",[empty],[empty],[empty],[empty],[empty],[empty],[empty],[empty],[empty],[empty],[empty],[empty],[empty],300,300,300
